In patent US10577362B2, “Substituted 2, 4-diamino-quinoline derivatives for use in the treatment of proliferative diseases” (GENOSCIENCE PHARMA, priority 2016, dated 2020):

Experiments:
[1] = tested on: MOLM-14 (acute myeloid leukemia) cell line; assay: CellTiter-Glo luminescent cell viability assay, MOLM-14; type: cell-based, human; conditions: Homo sapiens; for viability at 4 µM: MOLM-14, compound at 4 μM; for viability at 4 µM / viability at 10 µM: 72 h; for viability at 10 µM: MOLM-14, compound at 10 μM; for EC50: MOLM-14 cell line, 72 h incubation, CellTiter-Glo, read-out: EC50, growth inhibition of MOLM-14
In short: (§1)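 Cells were cultured at 37 °C, 5% CO2 with 10% FBS; adherent lines were plated overnight, suspension MOLM-14 plated 1 h before dosing. Compounds in H2O or DMSO were added at various concentrations for 72 h, and viability was read by luminescence. EC50 is the dose reducing signal to 50% of diluent control.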

[2] = tested on: A375 (malignant melanoma) cell line; assay: CellTiter-Glo luminescent cell viability assay, A375; type: cell-based, human; conditions: Homo sapiens, A-375; for viability at 4 µM: A375, compound at 4 μM; for viability at 4 µM / viability at 10 µM: 72 h; for viability at 10 µM: A375, compound at 10 μM; for EC50: A375 cell line, 72 h incubation, CellTiter-Glo, read-out: EC50, growth inhibition of A375
In short: (§2)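 Adherent cells grow overnight, or suspension cells are seeded 1 h ahead; compound dilutions are then added and plates incubated 72 h at 37 °C. After 30 min at room temperature, CellTiter-Glo reagent is added and luminescence recorded. EC50 derives from signal relative to diluent control.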

[3] = tested on: HCT-116 (colorectal carcinoma) cell line; assay: CellTiter-Glo luminescent cell viability assay, HCT-116; type: cell-based, human; conditions: Homo sapiens; for viability at 4 µM: HCT-116, compound at 4 μM; for viability at 4 µM / viability at 10 µM: 72 h; for viability at 10 µM: HCT-116, compound at 10 μM; for EC50: HCT-116 cell line, 72 h incubation, CellTiter-Glo, read-out: EC50, growth inhibition of HCT-116
In short: as §2

[4] = tested on: Huh7 (hepatocellular carcinoma) cell line; assay: CellTiter-Glo luminescent cell viability assay, Huh7; type: cell-based, human; conditions: Homo sapiens, Huh-7; for viability at 4 µM: Huh7, compound at 4 μM; for viability at 4 µM / viability at 10 µM: 72 h; for viability at 10 µM: Huh7, compound at 10 μM; for EC50: Huh7 cell line, 72 h incubation, CellTiter-Glo, read-out: EC50, growth inhibition of Huh7
In short: as §1

[5] = tested on: 786-O (renal adenocarcinoma) cell line; assay: CellTiter-Glo luminescent cell viability assay, 786-O; type: cell-based, human; conditions: Homo sapiens, 786-0; for EC50: 786-O cell line, 72 h incubation, CellTiter-Glo, read-out: EC50, growth inhibition of 786-O; for viability at 4 µM / viability at 10 µM: 786-O, 72 h; for viability at 4 µM: compound at 4 μM; for viability at 10 µM: compound at 10 μM
In short: as §2

[6] = tested on: HepG2 (hepatocellular carcinoma) cell line; assay: CellTiter-Glo luminescent cell viability assay, HepG2; type: cell-based, human; conditions: Homo sapiens; for viability at 4 µM / viability at 10 µM: HepG2, HepG, 72 h; for viability at 4 µM: compound at 4 μM; for viability at 10 µM: compound at 10 μM; for EC50: HepG2 cell line, 72 h incubation, CellTiter-Glo, read-out: EC50, growth inhibition of HepG2
In short: as §1

[7] = tested on: PANC-1 (prancreatic carcinoma) cell line; assay: CellTiter-Glo luminescent cell viability assay, PANC-1; type: cell-based; conditions: Homo sapiens; for viability at 4 µM: PANC-1, 4 μM; for viability at 4 µM / viability at 10 µM: 72 h, % of signal of diluent-treated cultures; for viability at 10 µM: PANC-1, 10 μM; for EC50: PANC-1 cell line, 72 h incubation, CellTiter-Glo, read-out: EC50 (growth inhibition assay of PANC-1 cell line)
Protocol: All cell lines were maintained in medium containing 1% penicillin-streptomycin (Dutscher, P06-07100) and 10% Fetal Bovine Serum (Hyclone Dutscher, RZK35922) cultured at 37° C. with 5% CO2. HepG2 (hepatocellular carcinoma), cell line was cultured in Dulbecco's modified Eagle's medium low glucose (Gibco, 21885025), Huh7 (hepatocellular carcinoma), HCT-116 (colorectal carcinoma), PANC-1 (prancreatic carcinoma) and A375 (malignant melanoma) cell lines were cultured in Dulbecco's modified Eagle's medium (Dutscher, L0103). MOLM-14 (acute myeloid leukemia) cell line was maintained in MEM alpha medium (Gibco, 22561-021). 786-0 (renal adenocarcinoma) cell lines were maintained in RPMI 1640 medium (Dutscher, L0498).
Cell viability was measured using the CellTiter-Glo® luminescent cell viability assay as described by the manufacturer (Promega, Ref G7571) using an Infinite F200Pro luminometer (Tecan). Briefly, for adherent cells, cells were plated onto 96-well plates (white with clear bottom) in 90 μL of media per well and were allowed to grow overnight before the assay. For cells growing in suspension, cells were plated onto 96-well plates 1 h before the assay.
Compounds were resuspended in H2O or DMSO and added at different concentrations to each well, and cell cultures were incubated for 72 h. Each diluent (H2O or DMSO) were used as a control, and all compounds were tested in a constant percentage of H2O or DMSO. On the day of the reading, plates are equilibrated 30 min at room temperature before the addition of 100 μL of CellTiter-Glo® and luminescence was measured using an Infinite F200Pro (Tecan). % cell viability were expressed as a percentage of the signal obtained for cell cultures treated with diluent. EC50 values were determined as the dose of compound required to reduce luminescent values to 50% of the signal obtained for cell cultures treated with diluent. The experimental data were analyzed using a computer program, Graphpad Prism v5 (GraphPad Software, Inc. La Jolla, Calif.). All points were at least done in duplicate.

SMILES | EC50 [1] | EC50 [2] | EC50 [3] | EC50 [4] | EC50 [5] | EC50 [6] | viability at 4 µM [1] | viability at 10 µM [1] | viability at 4 µM [2] | viability at 10 µM [2] | viability at 4 µM [3] | viability at 10 µM [3] | viability at 4 µM [4] | viability at 10 µM [4] | viability at 4 µM [5] | viability at 10 µM [5] | viability at 4 µM [6] | viability at 10 µM [6] | viability at 4 µM [7] | viability at 10 µM [7] | further results
CC(C)(C)NC1CCN(c2c(C#N)c(NCc3ccc(F)cc3)nc3ccccc23)CC1 [Compound 240CN, 2-(4-fluorobenzylamino)-3-cyano-4-[4-(tert-butylamino)piperidin-1-yl]quinoline] | 5 to 10 µM | 0.5 to 5 µM | 0.5 to 5 µM | 0.5 to 5 µM | 5 to 10 µM | 0.5 to 5 µM | 100% | 0.5% | 64.5% | 0.3% | 55.2% | 0.3% | 80% | 0.4% | 77.2% | 0.7% | 86.7% | 0.4% | 98.3% | 30% | EC50 [7]: 5 to 10 µM
CC(C)(C)NC1CCN(c2c(C#N)c(Nc3ccccc3)nc3ccccc23)CC1 [Compound 3246CN, 2-(phenylamino)-3-cyano-4-[4-(tert-butylamino)piperidin-1-yl]quinoline] | 5 to 10 µM | 0.5 to 5 µM | 0.5 to 5 µM | 0.5 to 5 µM | 5 to 10 µM | 0.5 to 5 µM | 91.9% | 3.1% | 66.2% | 0.2% | 3% | 0.1% | 67.7% | 0.6% | 59% | 0.2% | 53.2% | 0.2% | 88.2% | 38.8% | EC50 [7]: 5 to 10 µM
CC(C)(C)NC1CCN(c2c(C#N)c(Nc3ccc(F)cc3)nc3ccccc23)CC1 [Compound 3260CN, 2-(4-fluorophenylamino)-3-cyano-4-[4-(tert-butylamino)piperidin-1-yl]quinoline] | 5 to 10 µM | 0.5 to 5 µM | 0.5 to 5 µM | 5 to 10 µM | 0.5 to 5 µM | 0.5 to 5 µM | 86.7% | 0.9% | 2.2% | 0.4% | 1.2% | 0.3% | 50.7% | 0.7% | 17.5% | 0.3% | 49.1% | 0.4% | 84.1% | 39.1% | EC50 [7]: 5 to 10 µM
N#Cc1c(NCc2ccc(Cl)cc2)nc2ccccc2c1N1CCCC(NC2CCCC2)C1 (centres unmarked) [Compound 162CN, 2-(4-chlorobenzylamino)-3-cyano-4-[3-(cyclopentylamino)piperidin-1-yl]quinoline] | 0.5 to 5 µM | 0.5 to 5 µM | 0.5 to 5 µM | 0.5 to 5 µM | 0.5 to 5 µM | 0.5 to 5 µM | 45.6% | 0.3% | 0.4% | 0.2% | 0.8% | 0.1% | 37.1% | 0.2% | 12% | 0.2% | 0.3% | 0.1% | 75.3% | 0.8% | –
CN1CCN(C2CCCN(c3c(C#N)c(NCc4ccc(Cl)cc4)nc4ccccc34)C2)CC1 (centres unmarked) [Compound 3168CN, 2-(4-chlorobenzylamino)-3-cyano-4-[3-(4-methylpiperazin-1-yl)piperidin-1-yl]quinoline] | 5 to 10 µM | 0.5 to 5 µM | 0.5 to 5 µM | 0.5 to 5 µM | 0.5 to 5 µM | 5 to 10 µM | 105% | 0.8% | 61% | 0.8% | 40.7% | 0.5% | 80.1% | 0.7% | 75.4% | 0.6% | 87.8% | 0.6% | 100% | 22.3% | EC50 [7]: 5 to 10 µM

Second part, led by results:

EC50 [1] | EC50 [2] | EC50 [3] | EC50 [4] | EC50 [5] | EC50 [6] | SMILES | viability at 4 µM [1] | viability at 10 µM [1] | viability at 4 µM [2] | viability at 10 µM [2] | viability at 4 µM [3] | viability at 10 µM [3] | viability at 4 µM [4] | viability at 10 µM [4] | viability at 4 µM [5] | viability at 10 µM [5] | viability at 4 µM [6] | viability at 10 µM [6] | viability at 4 µM [7] | viability at 10 µM [7] | further results
0.5 to 5 µM | 0.5 to 5 µM | 0.5 to 5 µM | 0.5 to 5 µM | 0.5 to 5 µM | 0.5 to 5 µM | CN1CCN(C2CCN(c3c(C#N)c(NCc4ccc(Cl)cc4)nc4ccccc34)CC2)CC1 [Compound 3188CN, 2-(4-chlorobenzylamino)-3-cyano-4-[4-(4-methylpiperazin-1-yl)piperidin-1-yl]quinoline] | 108% | 0.7% | 52.8% | 0.4% | 42.9% | 0.5% | 85.2% | 0.6% | 64% | 0.5% | 82.7% | 0.6% | 91.6% | 3.5% | EC50 [7]: 5 to 10 µM
0.5 to 5 µM | 0.5 to 5 µM | 0.5 to 5 µM | 0.5 to 5 µM | 0.5 to 5 µM | 0.5 to 5 µM | Cc1ccc2nc(NCc3ccc(Cl)cc3)c(C#N)c(N3CCC(NC(C)(C)C)CC3)c2c1 [Compound 418CN, 2-(4-chlorobenzylamino)-3-cyano-4-[4-(tert-butylamino)piperidin-1-yl]-6-methylquinoline] | 3.8% | 0.3% | 0.3% | 0.3% | 0.2% | 0.2% | 50.5% | 0.3% | 0.9% | 0.2% | 5% | 0.2% | 79.8% | 0.4% | EC50 [7]: 5 to 10 µM
0.5 to 5 µM | 0.5 to 5 µM | 0.5 to 5 µM | 0.5 to 5 µM | 0.5 to 5 µM | 0.5 to 5 µM | Cc1ccc2c(N3CCC(NC(C)(C)C)CC3)c(C#N)c(NCc3ccc(Cl)cc3)nc2c1 [Compound 416CN, 2-(4-chlorobenzylamino)-3-cyano-4-[4-(tert-butylamino)piperidin-1-yl]-7-methylquinoline] | 37.9% | 0.4% | 0.4% | 0.4% | 0.3% | 0.3% | 75.5% | 0.6% | 0.4% | 0.3% | 61.9% | 0.5% | 100% | 0.7% | EC50 [7]: 5 to 10 µM
